Data reported in patent US20230159509A1 (Amathus Therapeutics, Inc., priority 2020, published 2023).

Target: T1, TRAP1 enzyme (Homo sapiens, UniProt Q12931)
T1 construct: 150 nM Trap1 enzyme was incubated with various concentrations of the test compound
T1 sequence (Q12931 60-704): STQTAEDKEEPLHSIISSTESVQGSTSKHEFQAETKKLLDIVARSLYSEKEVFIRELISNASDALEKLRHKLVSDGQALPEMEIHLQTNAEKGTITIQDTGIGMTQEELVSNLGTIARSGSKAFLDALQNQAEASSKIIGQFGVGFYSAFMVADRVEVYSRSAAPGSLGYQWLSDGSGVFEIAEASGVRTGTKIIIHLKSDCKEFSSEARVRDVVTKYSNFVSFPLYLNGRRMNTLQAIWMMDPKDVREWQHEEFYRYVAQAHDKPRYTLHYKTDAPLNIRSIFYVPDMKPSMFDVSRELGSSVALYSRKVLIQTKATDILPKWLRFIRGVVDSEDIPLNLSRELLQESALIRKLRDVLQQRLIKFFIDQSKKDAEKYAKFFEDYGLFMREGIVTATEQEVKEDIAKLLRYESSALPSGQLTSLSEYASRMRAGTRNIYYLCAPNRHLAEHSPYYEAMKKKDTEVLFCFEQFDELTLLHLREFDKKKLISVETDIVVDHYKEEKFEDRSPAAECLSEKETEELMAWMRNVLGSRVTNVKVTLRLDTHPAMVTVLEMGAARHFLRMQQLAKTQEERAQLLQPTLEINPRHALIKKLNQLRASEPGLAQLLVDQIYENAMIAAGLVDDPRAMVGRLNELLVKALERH
Experiment: ADP Glo assay of TRAP1 ATPase activity
Format: biochemical
Conditions: for EC50: concentration for half maximal activation, read-out: ADP GLO DRC: GeoMean EC50; for Emax: maximal percent activation, read-out: ADP GLO DRC: Mean Emax
Method: Potency of test compounds to modulate the ATPase activity of TRAP1 enzyme was evaluated using ADP Glo assay. The assay is based on quantification of the ADP generated from ATP in the ATPase reaction. The assay is performed in two steps; first, after the ATPase reaction an equal volume of ADP-Glo™ Reagent is added to terminate the ATPase reaction and deplete the remaining ATP. Second, the Kinase Detection Reagent is added to simultaneously convert ADP to ATP and allow the newly synthesized ATP to be measured using a luciferase/luciferin reaction.
All the assays were carried out in a 384-well Proxiplate. The buffer used was 25 mM Pipes pH-7.5, 40 mM KCl, 0.05 mM MgCl2, 0.025% BSA, 0.316 mM EGTA, 0.003% Empigen, 0.01% Igepal. 150 nM Trap1 enzyme was incubated with various concentrations of the test compound (0.79 μM-100 μM) at 37° C. for 30 mins (except in blank wells). 20 μM ATP was added to each well to start the reaction. The plate was spun for 1 min at 1200 rpm and then incubated at 37° C. for 60 mins. 5 μl of ADP Glo reagent was added to all the wells and spun the plate for 1 min at 1200 rpm and kept it on a shaker at ambient temperature for 60 mins. 10 μl of kinase detection mix was added to all the wells and the plate was read for Luminescence at 495 nm. The amount of ADP released was estimated from ATP/ADP standard curve generated at the same experimental conditions. Emax (Maximal percent activation) and EC50 (concentration for half maximal activation) were estimated by fitting the dose response data to a sigmoidal curve fitting equation using Graphpad Prism software V. 8.

Row | SMILES | EC50 [µM] | Emax [%]
1 | COc1ncc(NC(=O)c2csc(-c3ccccc3)n2)cc1S(=O)(=O)Nc1cc(C(F)(F)F)n[nH]1 [compound 1746] | 20 to 100 | 200 to 300
2 | COc1ncc(NC(=O)c2csc(-c3ccccc3)n2)cc1S(=O)(=O)Nc1cc(C)n(C(C)C)n1 [compound 1754] | 10 to 20 | 160 to 199
3 | COCCOc1cc(NS(=O)(=O)c2cc(NC(=O)c3csc(-c4ccccc4)n3)cnc2OC)ccn1 [compound 1760] | 20 to 100 | 119 to 159
4 | COc1ncc(NC(=O)c2csc(-c3ccccc3)n2)cc1S(=O)(=O)Nc1cccn2nc(C)nc12 [compound 1768] | 20 to 100 | 200 to 300
5 | CCOc1cc(NS(=O)(=O)c2cc(NC(=O)c3csc(-c4ccccc4)n3)cnc2OC)ccn1 [compound 1773] | 20 to 100 | 119 to 159
6 | COc1ncc(NC(=O)c2csc(-c3ccccc3)n2)cc1S(=O)(=O)Nc1ccnc2cccnc12 [compound 1779] | 20 to 100 | 119 to 159
7 | COc1ncc(NC(=O)c2csc(-c3ccccc3)n2)cc1S(=O)(=O)Nc1ccc(C)nc1C [compound 1780] | 20 to 100 | 119 to 159
8 | COc1ncc(NC(=O)c2csc(-c3ccccc3)n2)cc1S(=O)(=O)Nc1cc(C)no1 [compound 1784] | 20 to 100 | 119 to 159
9 | COc1ncc(NC(=O)c2csc(-c3ccccc3)n2)cc1S(=O)(=O)Nc1ccc(C#N)nc1 [compound 1785] | 20 to 100 | 200 to 300
10 | COc1ncc(NC(=O)c2csc(-c3ccccc3)n2)cc1S(=O)(=O)Nc1cc(C)cnc1C [compound 1792] | 20 to 100 | 119 to 159
11 | COc1ncc(NC(=O)c2csc(-c3ccccc3)n2)cc1S(=O)(=O)Nc1nc(C(C)(C)C)ns1 [compound 1839] | 10 to 20 | 200 to 300
12 | COc1cc(NS(=O)(=O)c2cc(NC(=O)c3csc(-c4ccccc4)n3)cnc2OC)ccn1 [compound 1878] | 20 to 100 | 119 to 159
13 | COc1ncc(NC(=O)c2csc(-c3ccccc3)n2)cc1S(=O)(=O)Nc1ccnc(C(F)(F)F)c1 [compound 1895] | 20 to 100 | 160 to 199
14 | COc1ncc(NC(=O)c2csc(-c3ccccc3)n2)cc1S(=O)(=O)Nc1ccc2nn[nH]c2c1 [compound 1926] | 20 to 100 | 119 to 159
15 | COc1ncc(NC(=O)c2ccnc(Br)c2)cc1S(=O)(=O)Nc1c(C)cccc1C [compound 1935, 1,2-bromo-N-(5-(N-(2,6-dimethylphenyl)sulfamoyl)-6-methoxypyridin-3-yl)isonicotinamide] | 20 to 100 | 200 to 300
16 | COc1ncc(NC(=O)c2coc(-c3ccc(F)cc3)n2)cc1S(=O)(=O)Nc1c(C)cc(F)cc1C [compound 1937, N-(5-(N-(4-fluoro-2,6-dimethylphenyl)sulfamoyl)-6-methoxypyridin-3-yl)-2-(4-fluorophenyl) oxazole-4-carboxamide] | < 10 | 119 to 159
17 | COc1ncc(NC(=O)c2ccnc(-c3cccnc3)c2)cc1S(=O)(=O)Nc1c(C)cccc1C [compound 1940, N-(5-(N-(2,6-dimethylphenyl)sulfamoyl)-6-methoxypyridin-3-yl)-[2,3′-bipyridine]-4-carboxamide] | 10 to 20 | > 300
18 | COc1ncc(NC(=O)c2cccc(-c3ccnn3C)c2)cc1S(=O)(=O)Nc1c(C)cccc1C [compound 1942, N-(5-(N-(2,6-dimethylphenyl)sulfamoyl)-6-methoxypyridin-3-yl)-3-(1-methyl-1H-pyrazol-5-yl)benzamide] | 10 to 20 | > 300
19 | COc1ncc(NC(=O)c2csc3c2C2CCN3CC2)cc1S(=O)(=O)Nc1ccc(Cl)cc1 [compound 1944, N-(5-(N-(4-chlorophenyl)sulfamoyl)-6-methoxypyridin-3-yl)-5,6-dihydro-4H-4,7-ethanothieno[2,3-b]pyridine-3-carboxamide] | 10 to 20 | 200 to 300
20 | COc1ncc(NC(=O)c2csc3c2C2CCN3CC2)cc1S(=O)(=O)Nc1c(C)cccc1C [compound 1946, N-(5-(N-(2,6-dimethylphenyl)sulfamoyl)-6-methoxypyridin-3-yl)-5,6-dihydro-4H-4,7-ethanothieno[2,3-b]pyridine-3-carboxamide] | < 10 | 160 to 199

Second part, the compound after the results:

Row | EC50 [µM] | Emax [%] | SMILES
21 | < 10 | 160 to 199 | COc1ncc(NC(=O)c2ncc(-c3ccccc3)o2)cc1S(=O)(=O)Nc1ccc(F)cc1C(C)C [compound 1514]
22 | 10 to 20 | 160 to 199 | COc1ncc(NC(=O)c2ncc(-c3ccccc3)o2)cc1S(=O)(=O)Nc1sc2c(c1C#N)CCCC2 [compound 1519]
23 | 20 to 100 | 200 to 300 | COc1ncc(NC(=O)c2ncc(-c3ccccc3)o2)cc1S(=O)(=O)Nc1ccc2cnoc2c1 [compound 1525]
24 | 20 to 100 | 119 to 159 | COc1ncc(NC(=O)c2ncc(-c3ccccc3)o2)cc1S(=O)(=O)Nc1cc(F)c(C#N)cc1F [compound 1538]
25 | 20 to 100 | 119 to 159 | CCc1cccc2sc(NS(=O)(=O)c3cc(NC(=O)c4ncc(-c5ccccc5)o4)cnc3OC)nc12 [compound 1552]
26 | 20 to 100 | 200 to 300 | COc1ncc(NC(=O)c2ncc(-c3ccccc3)o2)cc1S(=O)(=O)Nc1cc(-c2ccccc2C)nn1C [compound 1567]
27 | 20 to 100 | 200 to 300 | COc1ncc(NC(=O)c2ncc(-c3ccccc3)o2)cc1S(=O)(=O)Nc1cc(-c2ccc(C)cc2)nn1C [compound 1568]
28 | 10 to 20 | 160 to 199 | COc1ncc(NC(=O)c2ncc(-c3ccccc3)o2)cc1S(=O)(=O)Nc1cc(C)n(C(C)C)n1 [compound 1571]
29 | 10 to 20 | 160 to 199 | COc1ncc(NC(=O)c2ncc(-c3ccccc3)o2)cc1S(=O)(=O)Nc1cccc2cnc(C)cc12 [compound 1624]
30 | 10 to 20 | 160 to 199 | COc1ncc(NC(=O)c2ncc(-c3ccccc3)o2)cc1S(=O)(=O)Nc1cc(C2CCCCC2)no1 [compound 1640]
31 | 20 to 100 | 119 to 159 | CCCC(C)c1cc(NS(=O)(=O)c2cc(NC(=O)c3ncc(-c4ccccc4)o3)cnc2OC)on1 (stereo not shown) [compound 1648]
32 | 20 to 100 | 160 to 199 | COc1ncc(NC(=O)c2ncc(-c3ccccc3)o2)cc1S(=O)(=O)Nc1c(C)c(-c2ccccc2)nn1C [compound 1661]
33 | 10 to 20 | 119 to 159 | COc1cccc(OC)c1NS(=O)(=O)c1cc(NC(=O)c2ncc(-c3ccccc3)o2)cnc1OC [compound 1706]
34 | 20 to 100 | 119 to 159 | COc1ncc(NC(=O)c2csc(-c3ccccc3)n2)cc1S(=O)(=O)Nc1c(C)cnn1C [compound 1729]
35 | 10 to 20 | 200 to 300 | COc1ncc(NC(=O)c2ncc(-c3ccccc3)o2)cc1S(=O)(=O)Nc1c(C(C)C)ccnc1C(C)C [compound 1808]
36 | 20 to 100 | 160 to 199 | CNc1ncc(C(F)(F)F)cc1NS(=O)(=O)c1cc(NC(=O)c2ncc(-c3ccccc3)o2)cnc1OC [compound 1824]
37 | 20 to 100 | 200 to 300 | COc1ncc(NC(=O)c2ncc(-c3ccccc3)o2)cc1S(=O)(=O)Nc1cc(F)c(C)cc1C#N [compound 1898]
38 | 20 to 100 | 119 to 159 | COc1ncc(NC(=O)c2ncc(-c3ccccc3)o2)cc1S(=O)(=O)Nc1ccc2c(n1)CCC2 [compound 1908]
39 | 20 to 100 | 119 to 159 | COc1ncc(NC(=O)c2csc(-c3ccccc3)n2)cc1S(=O)(=O)Nc1c(C#N)cnn1C [compound 1911]
40 | 20 to 100 | 200 to 300 | COc1ncc(NC(=O)c2csc(-c3ccccc3)n2)cc1S(=O)(=O)Nc1nnn(Cc2ccccc2)n1 [compound 1912]
41 | < 10 | 160 to 199 | COc1ncc(NC(=O)c2coc(-c3ccccc3)n2)cc1S(=O)(=O)Nc1c(C)cccc1Cl [compound 1941, N-(5-(N-(2-chloro-6-methylphenyl)sulfamoyl)-6-methoxypyridin-3-yl)-2-phenyloxazole-4-carboxamide]
